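Five concentrations, 48 hours, 96-well plates. GI50: concentration for 50% inhibition of growth. The concentration for full growth arrest is given as TGI.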
What was measured:
Test in all cases: inhibition of tumour cell growth, NCI panel, 48 h
[1] = system: K-562 leukemia
[2] = system: MOLT-4 leukemia
[3] = system: MDA-MB-435
[4] = system: HT29 colon
[5] = system: SW-620 colon
[6] = system: NCI-H226 lung
[7] = system: SK-MEL-5 melanoma
[8] = system: MALME-3M melanoma
[9] = system: LOX IMVI melanoma
[10] = system: HCT-15 colon
[11] = system: SNB-75 CNS
[12] = system: UO-31 renal
[13] = system: SK-MEL-2 melanoma
[14] = system: RPMI-8226 leukemia
[15] = system: A498 renal
[16] = system: NCI-H23 lung
[17] = system: NCI-H460 lung
[18] = system: CAKI-1 renal
[19] = system: HOP-92 NSCLC
[20] = system: BT-549 breast
[21] = system: U251 CNS
[22] = system: MDA-MB-231 breast
[23] = system: ACHN renal
[24] = system: SK-MEL-28 melanoma
[25] = system: SF-539 CNS
[26] = system: HL-60(TB) leukemia
[27] = system: DU-145 prostate
[28] = system: M14 melanoma
[29] = system: MCF7 breast
[30] = system: OVCAR-3 ovarian
[31] = system: PC-3 prostate
[32] = system: NCI/ADR-RES ovarian
[33] = system: SF-295 CNS
[34] = system: NCI-H522 lung
[35] = system: HOP-62 NSCLC
[36] = system: SK-OV-3 ovarian
[37] = system: UACC-62 melanoma
[38] = system: SNB-19 CNS
[39] = system: OVCAR-5 ovarian
[40] = system: HCC-2998 colon
[41] = system: HCT-116 colon
[42] = system: SF-268 CNS
[43] = system: RXF 393 renal
[44] = system: KM12 colon
[45] = system: EKVX NSCLC
[46] = system: TK-10 renal
[47] = system: A549 NSCLC
[48] = system: 786-0 renal
[49] = system: T-47D breast
[50] = system: SR leukemia
[51] = system: COLO 205 colon
[52] = system: OVCAR-4 ovarian
[53] = system: UACC-257 melanoma
[54] = system: IGROV1 ovarian
[55] = system: HS 578T breast
[56] = system: OVCAR-8 ovarian
[57] = system: SN12C renal

COc1ccc(C23OCC(Cc4cc(OC)c(OC)cc42)C3COC(C)=O)cc1OC (stereo unspecified)
TGI [1]: > 100 µM | TGI [2]: > 100 µM | TGI [3]: > 100 µM | TGI [4]: > 100 µM | TGI [5]: > 100 µM | TGI [6]: > 100 µM | TGI [7]: > 100 µM | TGI [8]: > 100 µM | TGI [9]: > 100 µM | TGI [10]: > 100 µM | TGI [11]: > 100 µM | TGI [12]: > 100 µM | TGI [13]: > 100 µM | TGI [14]: > 100 µM | TGI [15]: > 100 µM | TGI [16]: > 100 µM | TGI [17]: > 100 µM | TGI [18]: > 100 µM | TGI [19]: > 100 µM | TGI [20]: > 100 µM | TGI [21]: > 100 µM | TGI [22]: > 100 µM | TGI [23]: > 100 µM | TGI [24]: > 100 µM | TGI [25]: > 100 µM | TGI [26]: > 100 µM | TGI [27]: > 100 µM | TGI [28]: > 100 µM | TGI [29]: > 100 µM | TGI [30]: > 100 µM | TGI [31]: > 100 µM | TGI [32]: > 100 µM | TGI [33]: > 100 µM | TGI [34]: > 100 µM | TGI [35]: > 100 µM | TGI [36]: > 100 µM | TGI [37]: > 100 µM | TGI [38]: > 100 µM | TGI [39]: > 100 µM | TGI [40]: > 100 µM | TGI [41]: > 100 µM | TGI [42]: > 100 µM | TGI [43]: > 100 µM | TGI [44]: > 100 µM | TGI [45]: > 100 µM | TGI [46]: > 100 µM | TGI [47]: > 100 µM | TGI [48]: > 100 µM | TGI [49]: > 100 µM | TGI [50]: > 100 µM | TGI [51]: > 100 µM | TGI [52]: > 100 µM

CNC(=O)C(CCc1ccccc1)NC(=O)C(CC(=O)NO)CC(C)C (stereo unspecified)
GI50 [1]: 19.6 µM | TGI [1]: > 25 µM | GI50 [2]: > 25 µM | TGI [2]: > 25 µM | GI50 [53]: > 25 µM | TGI [53]: > 25 µM | GI50 [3]: > 25 µM | TGI [3]: > 25 µM | GI50 [4]: > 25 µM | TGI [4]: > 25 µM | GI50 [5]: > 25 µM | TGI [5]: > 25 µM | GI50 [6]: > 25 µM | TGI [6]: > 25 µM | GI50 [7]: > 25 µM | TGI [7]: > 25 µM | GI50 [8]: > 25 µM | TGI [8]: > 25 µM | GI50 [9]: > 25 µM | TGI [9]: > 25 µM | GI50 [10]: > 25 µM | TGI [10]: > 25 µM | GI50 [11]: > 25 µM | TGI [11]: > 25 µM | GI50 [12]: > 25 µM | TGI [12]: > 25 µM | GI50 [13]: > 25 µM | TGI [13]: > 25 µM | GI50 [54]: > 25 µM | TGI [54]: > 25 µM | GI50 [15]: > 25 µM | TGI [15]: > 25 µM | GI50 [16]: > 25 µM | TGI [16]: > 25 µM | GI50 [17]: > 25 µM | TGI [17]: > 25 µM | GI50 [18]: > 25 µM | TGI [18]: > 25 µM | GI50 [20]: > 25 µM | TGI [20]: > 25 µM | GI50 [55]: > 25 µM | TGI [55]: > 25 µM | GI50 [21]: > 25 µM | TGI [21]: > 25 µM | GI50 [22]: > 25 µM | TGI [22]: > 25 µM | GI50 [23]: > 25 µM | TGI [23]: > 25 µM | GI50 [24]: > 25 µM | TGI [24]: > 25 µM | GI50 [25]: > 25 µM | TGI [25]: > 25 µM | GI50 [27]: > 25 µM | TGI [27]: > 25 µM | GI50 [28]: > 25 µM | TGI [28]: > 25 µM | GI50 [29]: > 25 µM | TGI [29]: > 25 µM | GI50 [30]: > 25 µM | TGI [30]: > 25 µM | GI50 [31]: > 25 µM | TGI [31]: > 25 µM | GI50 [32]: > 25 µM | TGI [32]: > 25 µM | GI50 [33]: > 25 µM | TGI [33]: > 25 µM | GI50 [34]: > 25 µM | TGI [34]: > 25 µM | GI50 [35]: > 25 µM | TGI [35]: > 25 µM | GI50 [36]: > 25 µM | TGI [36]: > 25 µM | GI50 [37]: > 25 µM | TGI [37]: > 25 µM | GI50 [38]: > 25 µM | TGI [38]: > 25 µM | GI50 [39]: > 25 µM | TGI [39]: > 25 µM | GI50 [40]: > 25 µM | TGI [40]: > 25 µM | GI50 [41]: > 25 µM | TGI [41]: > 25 µM | GI50 [56]: > 25 µM | TGI [56]: > 25 µM | GI50 [57]: > 25 µM | TGI [57]: > 25 µM | GI50 [42]: > 25 µM | TGI [42]: > 25 µM | GI50 [44]: > 25 µM | TGI [44]: > 25 µM | GI50 [45]: 8.31 µM | TGI [45]: > 25 µM | GI50 [46]: > 25 µM | TGI [46]: > 25 µM | GI50 [47]: > 25 µM | TGI [47]: > 25 µM | GI50 [48]: > 25 µM | TGI [48]: > 25 µM | GI50 [49]: > 25 µM | TGI [49]: > 25 µM | GI50 [51]: > 25 µM | TGI [51]: > 25 µM | GI50 [52]: > 25 µM | TGI [52]: > 25 µM
